pIC50: −log10 of the molar value.
target: Recombinant human KIF18A (1-467His-tagged) protein (Homo sapiens (Human), UniProt Q8NI77); assay: KIF18A enzyme assay (microtubule-stimulated ATPase activity, ADP-Glo); assay type: biochemical; settings: 30 nM KIF18A, ATP 75 μM, read-out: inhibitory activity against KIF18A IC50
Procedure: Biological Example 1. Assay for In Vitro Inhibition of Enzymatic Activity of KIF18A by Compounds of the Present Invention
KIF18A enzyme assay: The enzymatic activity of KIF18A after treatment with the compounds was measured by an assay of microtubule-stimulated ATPase activity. ADP generated from the ATPase reaction was measured in this assay. The compounds were serially diluted 2-fold in DMSO over a range of 22 concentration points. Recombinant human KIF18A (1-467His-tagged) protein was expressed using a baculovirus system. Concentrations of KIF18A protein, microtubules, and ATP in the reaction were optimized for a standardized homogenous enzyme assay using an ADP-Glo kinase/ATPase assay kit. A reaction buffer [(15 mM Tris, pH 7.5), 10 mM MgCl2, 0.01% PluronicF-68, 1 μM paclitaxel, and 30 μg/mL pig microtubules] was prepared. The compounds and KIF18A protein (30 nM) were added to the prepared reaction buffer, and the reaction mixture was incubated at room temperature for 15 min, followed by addition of ATP (Km, 75 μM). The resulting reaction mixture was incubated at room temperature for another 15 min. 5 μL of ADP-Glo reagent and 2.5 μL of the reaction mixture were mixed and the resulting mixture was incubated at room temperature for 40 min. 10 μL of ADP-Glo detection reagent was added and the mixture was incubated at room temperature for 40 min. Luminescence was measured using a microplate reader and compared with that of the DMSO group, and then the inhibition percentages and IC50 values of the compounds were calculated.

Recombinant human KIF18A (1-467His-tagged) protein, sequence (Q8NI77 1-467): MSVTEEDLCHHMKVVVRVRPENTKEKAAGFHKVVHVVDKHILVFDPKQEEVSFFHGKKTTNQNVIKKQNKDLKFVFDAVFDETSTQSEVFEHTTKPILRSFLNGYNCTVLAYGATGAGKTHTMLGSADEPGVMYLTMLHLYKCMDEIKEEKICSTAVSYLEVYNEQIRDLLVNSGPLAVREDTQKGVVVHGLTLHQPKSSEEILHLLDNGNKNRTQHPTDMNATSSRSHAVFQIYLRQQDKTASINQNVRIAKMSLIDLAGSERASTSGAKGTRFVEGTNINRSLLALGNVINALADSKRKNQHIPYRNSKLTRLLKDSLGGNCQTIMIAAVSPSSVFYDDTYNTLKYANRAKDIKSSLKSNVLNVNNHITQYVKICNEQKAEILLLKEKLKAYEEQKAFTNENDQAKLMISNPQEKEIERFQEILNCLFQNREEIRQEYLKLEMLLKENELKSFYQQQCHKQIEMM
Recombinant human KIF18A (1-467His-tagged) protein, sequence (P02550 whole entry partner): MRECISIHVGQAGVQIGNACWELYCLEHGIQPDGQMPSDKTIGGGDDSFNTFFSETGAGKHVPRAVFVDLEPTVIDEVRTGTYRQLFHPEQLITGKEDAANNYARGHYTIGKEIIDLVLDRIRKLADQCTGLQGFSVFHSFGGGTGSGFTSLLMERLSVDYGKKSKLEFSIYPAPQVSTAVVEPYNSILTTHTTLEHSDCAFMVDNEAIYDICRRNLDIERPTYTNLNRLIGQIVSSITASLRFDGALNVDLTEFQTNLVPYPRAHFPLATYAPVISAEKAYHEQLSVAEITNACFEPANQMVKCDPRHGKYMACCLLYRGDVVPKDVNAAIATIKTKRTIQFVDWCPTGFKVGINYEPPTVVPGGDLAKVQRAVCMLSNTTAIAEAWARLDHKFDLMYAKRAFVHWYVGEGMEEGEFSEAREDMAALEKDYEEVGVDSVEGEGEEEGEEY
Recombinant human KIF18A (1-467His-tagged) protein, sequence (P02554 whole entry partner): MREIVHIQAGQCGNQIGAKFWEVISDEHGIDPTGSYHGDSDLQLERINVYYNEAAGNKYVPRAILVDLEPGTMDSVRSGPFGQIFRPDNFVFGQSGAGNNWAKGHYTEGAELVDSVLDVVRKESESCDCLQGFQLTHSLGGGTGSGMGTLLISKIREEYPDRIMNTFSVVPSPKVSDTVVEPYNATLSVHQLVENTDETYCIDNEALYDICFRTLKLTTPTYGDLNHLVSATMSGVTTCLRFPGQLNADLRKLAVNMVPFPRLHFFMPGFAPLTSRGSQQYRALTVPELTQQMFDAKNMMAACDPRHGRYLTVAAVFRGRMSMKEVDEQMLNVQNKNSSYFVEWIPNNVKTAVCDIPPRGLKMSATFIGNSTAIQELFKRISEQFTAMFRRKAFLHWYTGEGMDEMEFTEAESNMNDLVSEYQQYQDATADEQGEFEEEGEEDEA

Row | SMILES | pIC50
1 | C[C@@H]1CN(c2nc(C(=O)Nc3ccc(S(=O)(=O)N[C@@H](C)CO)cc3N3CCC4(CC3)CC4)cc3ccoc23)CCO1 [Compound 255] | ≥ 7.00
2 | C[C@@H]1CN(c2nc(C(=O)Nc3ccc(NS(=O)(=O)[C@H](C)CO)cc3N3CCC4(CC3)CC4)cc3ccn(C)c23)CCO1 [Compound 496] | ≥ 7.00
3 | CC1(F)CCN(c2cc(NC(=O)c3ccc(NS(=O)(=O)CCO)cc3N3CCC4(CC3)CC4)cc3ccoc23)C1 (stereo not shown) [Compound 136] | ≥ 7.00
4 | CC(C)(CO)Nc1cc(C(=O)Nc2ccc(S(=O)(=O)NCCO)cc2N2CCC3(CC2)CC3)cc2ccoc12 [Compound 187] | ≥ 7.00
5 | C[C@H](CO)S(=O)(=O)Nc1ccc(C(=O)Nc2cc3c(c(N4CCC(F)(F)CC4)c2)N(C)CC3)c(N2CCC3(CC2)CC3)c1 [Compound 270] | ≥ 7.00
6 | C[C@H](CO)NS(=O)(=O)c1ccc(C(=O)Nc2cc3c(c(N4CCC(F)(F)CC4)c2)OCC3)c(N2CCC3(CC2)CC3)c1 [Compound 30] | ≥ 7.00
7 | CN1CCc2cc(NC(=O)c3ccc(NS(=O)(=O)CCO)cc3N3CCC4(CC3)CC4)cc(N3CCOCC3)c21 [Compound 268] | ≥ 7.00
8 | Cn1ccc2cc(C(=O)Nc3ccc(NS(=O)(=O)CCO)cc3N3CCC4(CC3)CC4)nc(N3CC4CC4C3)c21 (stereo not shown) [Compound 490] | ≥ 7.00
9 | O=C(Nc1ccc(NS(=O)(=O)CCO)cc1N1CCC2(CC1)CC2)c1cc2c(c(N3CCC4(CC4)C3)n1)OCC2 [Compound 102] | ≥ 7.00
10 | C[C@H](CO)NS(=O)(=O)c1ccc(C(=O)Nc2cc(N3CCO[C@H](C)C3)c3occc3c2)c(N2CCC3(CC2)CC3)c1 [Compound 160] | ≥ 7.00
11 | CN1CCc2cc(C(=O)Nc3ccc(S(=O)(=O)NCCO)cc3N3CCC4(CC3)CC4)nc(N3CCC4(CC4)C3)c21 [Compound 374] | ≥ 7.00
12 | Cn1ccc2cc(C(=O)Nc3ccc(S(=O)(=O)NCCO)cc3N3CCC4(CC3)CC4)cc(N3CC4CC4C3)c21 (stereo not shown) [Compound 442] | ≥ 7.00
13 | C[C@H](CO)S(=O)(=O)Nc1ccc(C(=O)Nc2cc(N3CCC(F)(F)CC3)c3occc3c2)c(N2CCC3(CC2)CC3)c1 [Compound 142] | ≥ 7.00
14 | O=C(Nc1cc(N2CCC(F)(F)CC2)c2nccn2c1)c1ccc(NS(=O)(=O)CCO)cc1N1CCC2(CC1)CC2 [Compound 535] | ≥ 7.00
15 | Cn1ccc2cc(C(=O)Nc3ccc(NS(=O)(=O)CCO)cc3N3CCC4(CC3)CC4)nc(N3CCC(C)(F)C3)c21 (stereo not shown) [Compound 488] | ≥ 7.00
16 | Cn1ccc2cc(C(=O)Nc3ccc(NS(=O)(=O)CCO)cc3N3CCC4(CC3)CC4)nc(N3CCC(F)CC3)c21 [Compound 489] | ≥ 7.00
17 | O=C(Nc1ccc(NS(=O)(=O)CCO)cc1N1CCC2(CC1)CC2)c1cc2c(c(N3CC(F)(F)C3)c1)OCC2 [Compound 36] | ≥ 7.00
18 | C[C@@H]1CN(c2nc(C(=O)Nc3ccc(NS(=O)(=O)CCO)cc3N3CCC4(CC3)CC4)cc3ccoc23)CCO1 [Compound 226] | ≥ 7.00
19 | C[C@@H]1CN(c2cc(C(=O)Nc3ccc(NS(=O)(=O)CCO)cc3N3CCC4(CC3)CC4)cc3ccn(C)c23)CCO1 [Compound 418] | ≥ 7.00
20 | CN1CCc2cc(C(=O)Nc3ccc(NS(=O)(=O)CCO)cc3N3CCC4(CC3)CC4)cc(N3CCC4(CC4)C3)c21 [Compound 294] | ≥ 7.00
21 | O=C(Nc1cc2c(c(N3CCOCC3)n1)OCC2)c1ccc(S(=O)(=O)NCCO)cc1N1CCC2(CC1)CC2 [Compound 92] | ≥ 7.00
22 | Cn1ccc2cc(NC(=O)c3ccc(NS(=O)(=O)CCO)cc3N3CCC4(CC3)CC4)nc(NC(C)(C)CO)c21 [Compound 459] | ≥ 7.00
23 | CC1(F)CCN(c2nc(NC(=O)c3ccc(S(=O)(=O)NCCO)cc3N3CCC4(CC3)CC4)cc3ccoc23)C1 (stereo not shown) [Compound 216] | ≥ 7.00

Row | SMILES | pIC50
24 | CC1(F)CCN(c2nc(C(=O)Nc3ccc(S(=O)(=O)NCCO)cc3N3CCC4(CC3)CC4)cc3c2OCC3)C1 (stereo not shown) [Compound 120] | ≥ 7.00
25 | CN1CCc2cc(NC(=O)c3ccc(NS(=O)(=O)CCO)cc3N3CCC4(CC3)CC4)cc(OC3CCC3)c21 [Compound 263] | ≥ 7.00
26 | C[C@@H]1CN(c2nc(NC(=O)c3ccc(S(=O)(=O)NCCO)cc3N3CCC4(CC3)CC4)cc3c2N(C)CC3)CCO1 [Compound 338] | ≥ 7.00
27 | Cn1ccc2cc(NC(=O)c3ccc(S(=O)(=O)NCCO)cc3N3CCC4(CC3)CC4)cc(NC(C)(C)CO)c21 [Compound 411] | ≥ 7.00
28 | CC(C)(CO)Nc1cc(NC(=O)c2ccc(S(=O)(=O)NCCO)cc2N2CCC3(CC2)CC3)cc2ccoc12 [Compound 155] | ≥ 7.00
29 | C[C@@H]1CN(c2cc(NC(=O)c3ccc(NS(=O)(=O)[C@@H](C)CO)cc3N3CCC4(CC3)CC4)cc3ccoc23)CCO1 [Compound 143] | ≥ 7.00
30 | Cn1ccc2cc(C(=O)Nc3ccc(S(=O)(=O)NCCO)cc3N3CCC4(CC3)CC4)nc(N3CC4CC4C3)c21 (stereo not shown) [Compound 506] | ≥ 7.00
31 | CN1CCc2cc(NC(=O)c3ccc(NS(=O)(=O)CCO)cc3N3CCC4(CC3)CC4)nc(OC3CCC3)c21 [Compound 327] | ≥ 7.00
32 | C[C@@H](CO)NS(=O)(=O)c1ccc(NC(=O)c2cc3c(c(N4CCC(F)(F)CC4)n2)OCC3)c(N2CCC3(CC2)CC3)c1 [Compound 125] | ≥ 7.00
33 | Cn1ccc2cc(NC(=O)c3ccc(S(=O)(=O)NCCO)cc3N3CCC4(CC3)CC4)cc(OCCC(F)(F)F)c21 [Compound 405] | ≥ 7.00
34 | O=C(Nc1ccc(NS(=O)(=O)CCO)cc1N1CCC2(CC1)CC2)c1cc(N2CC(F)(F)C2)c2occc2c1 [Compound 164] | ≥ 7.00
35 | O=C(Nc1cc2c(c(N3CC4CC4C3)n1)OCC2)c1ccc(S(=O)(=O)NCCO)cc1N1CCC2(CC1)CC2 (stereo not shown) [Compound 90] | ≥ 7.00
36 | O=C(Nc1cc2c(c(N3CCC(F)CC3)c1)OCC2)c1ccc(NS(=O)(=O)CCO)cc1N1CCC2(CC1)CC2 [Compound 9] | ≥ 7.00
37 | CN1CCc2cc(C(=O)Nc3ccc(NS(=O)(=O)CCO)cc3N3CCC4(CC3)CC4)nc(N3CCC(C)(F)C3)c21 (stereo not shown) [Compound 360] | ≥ 7.00
38 | C[C@@H]1CN(c2nc(C(=O)Nc3ccc(S(=O)(=O)NCCO)cc3N3CCC4(CC3)CC4)cc3ccn(C)c23)CCO1 [Compound 498] | ≥ 7.00
39 | O=C(Nc1cc2ncsc2c(N2CCC(F)(F)CC2)n1)c1ccc(NS(=O)(=O)CCO)cc1N1CCC2(CC1)CC2 [Compound 516] | ≥ 7.00
40 | O=C(Nc1cc2c(c(N3CCOCC3)c1)OCC2)c1ccc(NS(=O)(=O)CCO)cc1N1CCC2(CC1)CC2 [Compound 12] | ≥ 7.00
41 | C[C@H]1CN(c2cc(C(=O)Nc3ccc(S(=O)(=O)NCCO)cc3N3CCC4(CC3)CC4)cc3ccn(C)c23)CCO1 [Compound 435] | ≥ 7.00
42 | C[C@H](CO)NS(=O)(=O)c1ccc(C(=O)Nc2cc3c(c(N4CCO[C@H](C)C4)c2)N(C)CC3)c(N2CCC3(CC2)CC3)c1 [Compound 288] | ≥ 7.00
43 | Cn1ccc2cc(C(=O)Nc3ccc(NS(=O)(=O)CCO)cc3N3CCC4(CC3)CC4)cc(N3CCC(F)CC3)c21 [Compound 425] | ≥ 7.00
44 | CN1CCc2cc(NC(=O)c3ccc(NS(=O)(=O)CCO)cc3N3CCC4(CC3)CC4)nc(NC(C)(C)CO)c21 [Compound 331] | ≥ 7.00
45 | C[C@@H](CO)NS(=O)(=O)c1ccc(C(=O)Nc2cc3c(c(N4CCC(F)(F)CC4)n2)OCC3)c(N2CCC3(CC2)CC3)c1 [Compound 93] | ≥ 7.00
46 | Cn1ccc2cc(NC(=O)c3ccc(S(=O)(=O)NCCO)cc3N3CCC4(CC3)CC4)cc(N3CC4CC4C3)c21 (stereo not shown) [Compound 410] | ≥ 7.00

— patent US20250197382A1, “KIF18A INHIBITOR” (WIGEN BIOMEDICINE TECHNOLOGY (SHANGHAI) CO., LTD., priority 2022, published 2025)
